US20260317313A1, “DNA Polymerase Theta Inhibitors Containing Non-Saturated 5-Membered Heterocyclic Rings and Use Thereof” (Thomas Jefferson University, priority 2022, published 2026)

molecular target: T1, recombinant human Polq polymerase domain (residues 1792-2590) (Homo sapiens, UniProt O75417); assay: Cy5 fluorescence assay of Polq polymerase enzymatic activity; type: biochemical; details: 5 nM Polq polymerase domain, 60 nM primer-template, 50 uM dNTPs, 37° C., 18 min, 2.5% DMSO, triplicate; read-out: Polq IC50
T1 sequence (O75417 1792-2590): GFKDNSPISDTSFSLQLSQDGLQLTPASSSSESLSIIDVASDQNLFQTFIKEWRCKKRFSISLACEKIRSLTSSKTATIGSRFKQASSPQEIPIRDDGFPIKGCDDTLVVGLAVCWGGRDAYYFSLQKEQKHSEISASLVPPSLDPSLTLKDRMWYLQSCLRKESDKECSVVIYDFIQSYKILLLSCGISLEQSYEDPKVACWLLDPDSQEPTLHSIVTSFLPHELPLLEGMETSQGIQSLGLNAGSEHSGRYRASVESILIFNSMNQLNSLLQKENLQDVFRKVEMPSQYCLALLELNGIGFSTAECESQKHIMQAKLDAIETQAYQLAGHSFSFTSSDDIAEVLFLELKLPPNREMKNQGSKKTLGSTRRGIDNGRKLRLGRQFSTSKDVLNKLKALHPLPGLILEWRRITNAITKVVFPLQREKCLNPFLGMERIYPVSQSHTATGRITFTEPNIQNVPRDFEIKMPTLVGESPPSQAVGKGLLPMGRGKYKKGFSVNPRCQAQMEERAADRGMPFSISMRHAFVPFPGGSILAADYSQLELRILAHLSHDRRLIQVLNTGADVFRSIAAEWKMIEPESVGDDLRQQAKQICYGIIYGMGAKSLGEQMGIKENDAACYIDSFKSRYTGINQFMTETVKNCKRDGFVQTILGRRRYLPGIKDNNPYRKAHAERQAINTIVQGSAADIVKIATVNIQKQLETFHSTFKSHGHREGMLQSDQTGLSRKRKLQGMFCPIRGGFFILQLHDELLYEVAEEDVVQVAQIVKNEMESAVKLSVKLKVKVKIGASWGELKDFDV
Protocol: The following Cy5 fluorescence assay was used to measure the ability of compounds to inhibit Polq polymerase domain in vitro. The fluorescent based assay was performed as follows: 60 nM of the pre-annealed primer-template containing a 5′ Cy5 fluorophore conjugated template strand (SEQ ID NO 6: 5′-/5Cy5/ […] GGACAG-3′), a downstream complementary oligo conjugated with a 3′ Blackhole quencher (SEQ ID NO 7: 5′-CTAAGCTCACAGTG/3IAbRQSp/-3′) and a primer strand (SEQ ID NO 8: 5′-CTGTCCTGCATGATG-3′) was mixed with 50 uM 2′-deoxyribonucleoside triphosphates (dNTPs), 0.1 mg/mL Bovine serum albumin (BSA), 0.01% NP-40, 10% glycerol, 1 mM dithiothreitol (DTT), 10 mM MgCl2, 25 mM TrisHCl pH 7.8 in the presence of 2.5% DMSO with or without various concentrations (7-point dilution series) of Polq small molecule inhibitors represented by Formula I at 37° C. in a volume of 40 μL.

SMILES	IC50
CN(C(=O)Oc1c(-c2cn(C3CC(O)C3)nn2)cc(C(F)(F)F)cc1C(F)(F)F)c1ccc(F)cc1 (stereo not shown) [Example 17, 2-[1-(3-hydroxycyclobutyl)-1H-1,2,3-triazol-4-yl]-4,6-bis(trifluoromethyl)phenyl N-(4-fluorophenyl)-N-methylcarbamate]	1.5 nM
[2H]C([2H])([2H])N(C(=O)Cc1c(-c2cnn(C(=O)OC(C)(C)C)c2)cc(C(F)(F)F)cc1C(F)(F)F)c1ccc(F)cc1 [Example 22, Tert-butyl 4-(2-{[(4-fluorophenyl)(methyl-d3)carbamoyl]methyl}-3,5-bis(trifluoromethyl)phenyl)-1H-pyrazole-1-carboxylate]	24.5 nM
[2H]C([2H])([2H])N(C(=O)Cc1c(-c2cn[nH]c2)cc(C(F)(F)F)cc1C(F)(F)F)c1ccc(F)cc1 [Example 23, N-(4-fluorophenyl)-N-(methyl-d3)-2-[2-(1H-pyrazol-4-yl)-4,6-bis(trifluoromethyl)phenyl]acetamide]	46.8 nM

same assay, conditions: Polq IC50, 5 nM Polq polymerase domain, 60 nM primer-template, 50 uM dNTPs, 37° C., 18 min, 2.5% DMSO, triplicate

SMILES	IC50
[2H]C([2H])([2H])N(C(=O)Oc1c(-c2cn(C3CN(S(C)(=O)=O)C3)nn2)cc(C(F)(F)F)cc1C(F)(F)F)c1ccc(F)c(Cl)c1F [Example 28, 2-[1-(1-methanesulfonylazetidin-3-yl)-1H-1,2,3-triazol-4-yl]-4,6-bis(trifluoromethyl)phenyl N-(3-chloro-2,4-difluorophenyl)-N-(methyl-d3)carbamate]	3.2 nM
CN(C(=O)Oc1c(-c2cn(CCOCC(=O)Nc3cccc4c3C(=O)N(C3CCC(=O)NC3=O)C4=O)nn2)cc(C(F)(F)F)cc1C(F)(F)F)c1ccc(F)cc1 (stereo not shown) [Example 5, 2-(1-(2-(2-((2-(2,6-dioxopiperidin-3-yl)-1,3-dioxoisoindolin-4-yl)amino)-2-oxoethoxy)ethyl)-1H-1,2,3-triazol-4-yl)-4,6-bis(trifluoromethyl)phenyl (4-fluorophenyl) (methyl)carbamate]	4.6 nM
[2H]C([2H])([2H])N(C(=O)Oc1c(-c2cn(C3C[C@@H](O)[C@@H](O)C3)nn2)cc(C(F)(F)F)cc1C(F)(F)F)c1ccc(F)cc1 (mixture of isomers) [Example 13, 2-{1-[(3R,4S)-3,4-dihydroxycyclopentyl]-1H-1,2,3-triazol-4-yl}-4,6-bis(trifluoromethyl)phenyl N-(4-fluorophenyl)-(methyl-d3)carbamate (Racemate)]	4.6 nM
CN(C(=O)Oc1c(-c2cn(CCCCC(=O)Nc3cccc4c3C(=O)N(C3CCC(=O)NC3=O)C4=O)nn2)cc(C(F)(F)F)cc1C(F)(F)F)c1ccc(F)cc1 (stereo not shown) [Example 3, 2-(1-(5-((2-(2,6-dioxopiperidin-3-yl)-1,3-dioxoisoindolin-4-yl)amino)-5-oxopentyl)-1H-1,2,3-triazol-4-yl)-4,6-bis(trifluoromethyl)phenyl (4-fluorophenyl) (methyl)carbamate]	3.3 nM
CN(C(=O)Oc1c(-c2cn(CC3(O)CNC3)nn2)cc(C(F)(F)F)cc1C(F)(F)F)c1ccc(F)cc1 [Example 14, 2-{1-[(3-hydroxyazetidin-3-yl)methyl]-1H-1,2,3-triazol-4-yl}-4,6-bis(trifluoromethyl)phenyl N-(4-fluorophenyl)-N-methylcarbamate]	2.3 nM
[2H]C([2H])([2H])N(C(=O)Oc1c(-n2cnn(CC(O)CNC)c2=O)cc(C(F)(F)F)cc1C(F)(F)F)c1ccc(F)cc1 (stereo not shown) [Example 35, 2-{1-[2-hydroxy-3-(methylamino)propyl]-5-oxo-4,5-dihydro-1H-1,2,4-triazol-4-yl}-4,6-bis(trifluoromethyl)phenyl N-(4-fluorophenyl)-N-(methyl-d3)carbamate]	104 nM
[2H]C([2H])([2H])N(C(=O)Oc1c(-c2cn(CC3(O)CNC3)nn2)cc(C(F)(F)F)cc1C(F)(F)F)c1ccc(F)cc1 [Example 15, 2-{1-[(3-hydroxyazetidin-3-yl)methyl]-1H-1,2,3-triazol-4-yl}-4,6-bis(trifluoromethyl)phenyl N-(4-fluorophenyl)-N-(methyl-d3)carbamate]	1.9 nM
